# Experimental data published in patent publication US9173875B2, “Treatment for nicotine-induced lung disease using peroxisome proliferator-activated receptor gamma agonists” (Los Angeles Biomedical Research Institute at Harbor-UCLA …, priority 2006, dated 2015).
# Assays:
# WI38 cells [1] = assay: Reversal of nicotine-induced LIF-to-MYF transdifferentiation in WI38 cells, Western analysis; conditions: for reversal of nicotine-induced decrease in PTHrP receptor expression: 7 days agonist after 7 days nicotine 10^−9 M (Example 3); for reversal of nicotine-induced decrease in PPARγ expression / reversal of nicotine-induced increase in αSMA expression: 7 days agonist after 7 days nicotine (Example 3); for reversal of nicotine-induced changes in expression of PTHrP receptor, PPARγ, ADRP, αSMA and calponin: RGZ 1×10^−5 M, PTHrP 5×10^−7 M, DBcAMP 1×10^−5 M for 7 days after 7 days nicotine
# Protocol: The human embryonic cell line WI38 was obtained from the American Type Culture Collection (Rockville, Md.). Cells were grown in minimum essential medium (MEM) +10% fetal bovine serum at 37° C. in six-well plates, two well slides, and 60-mm and 100-mm culture dishes, as needed. […] Subsequently, the cells were treated with rosiglitazone (RGZ) (1×10^−5 M) (a PPARγ agonist), PTHrP (5×10^−7 M), or DBcAMP (1×10^−5 M) for 7 days, and the expression of PTHrP receptor, PPARγ, ADRP, calponin, and cSMA was determined by Western analysis and immunohistochemistry. Simultaneously, fibroblast function was characterized by measuring their capacity to take up triglycerides. Some experiments were performed in the presence of a specific PPARγ antagonist, GW9662. Medium containing fresh chemicals was added daily, and at the end of the experimental period the cells were processed as needed.
# For Western blotting, cells were lysed using an extraction buffer [10 mM tris (hydroxymethyl) aminomethane (Tris, pH 7.5), 0.25 M sucrose, 1 mM EDTA, 5 mM benzamidine, 2 mM phenylmethylsulfonyl fluoride, and 10 (j.tg/ml each of pepstatin A, aprotinin, and leupeptin], and centrifuged at 140 g for 10 min (4° C.). Equal amounts of the protein (25 μg) from the supernatant were dissolved in electrophoresis sample buffer and were subjected to sodium dodecyl sulfate-polyacrylamide (4%-12% gradient) gel electrophoresis (SDS-PAGE) followed by electrophoretic transfer to a nitrocellulose memane. The nonspecific binding of antibody was blocked by washing with Tris-buffered saline (TBS) containing 0.1% Tween 20 (TBST) and 5% milk for 1 h. The blot was then subjected to two brief washes with TBST plus 0.5% Tween 20, incubated in TBST plus 0.1% Tween 20 and the specific primary antibodies (PPARγ 1:2000, Alexis Biochemicals, San Diego, Calif.; cSMA 1:50,000, Sigma, St. Louis, Mo.: ADRP 1:3000) overnight at 4° C. Blots were then washed in TBST plus 0.1% Tween 20 and then incubated for 1 h in secondary antibody, washed, and developed with a chemiluminescent substrate [enhanced chemiluminescence (ECL); Amersham, Arlington Heights, Ill.] following the manufacturer's protocol. The densities of the specific protein bands were quantified using a scanning densitometer (Eagle Eye II still video system, Stratagene, La Jolla, Calif.).
# WI38 cells [2] = assay: Reversal experiment, triglyceride (triolein) uptake by WI38 cells; type: cell-based, human; conditions: RGZ 10^−5 M, PTHrP 5×10^−7 M, DBcAMP 1×10^−5 M for 7 days after nicotine
# WI38 cells [3] = assay: Western blot of lipogenic and myogenic marker proteins in WI38 cells (nicotine with or without lipogenic pathway agonists); type: cell-based, human; conditions: PTHrP 5×10^−7 M, DBcAMP 1×10^−4 M, RGZ 1×10^−5 M
# Protocol: (§1) The human embryonic cell line WI38 was obtained from American Type Culture Collection (Rockville, Md.). Cells were grown in MEM plus 10% FBS at 37° C. in six-well plates, four-well slides, and 60- and 100-mm culture dishes as needed.
# Western blotting was performed with modifications of methods described previously (Ayad and Wong (1998) Crit. Care Med 26: 1277-1282). […] Equal amounts of the protein (25 μg) from the supernatant were dissolved in electrophoresis sample buffer and were subjected to SDS-PAGE (4-12% gradient) followed by electrophoretic transfer to a nitrocellulose membrane. Nonspecific binding of antibody was blocked by washing with Tris-buffered saline (TBS) containing 5% milk for 1 h. The blot was then subjected to two brief washes with TBS plus 0.5% Tween 20, incubated in TBS plus 0.1% Tween 20 and the specific primary antibodies (PPAR 1:2,000, Alexis Biochemicals, San Diego, Calif.; -SMA 1:50,000, Sigma; ADRP 1:3,000, a kind gift from Dr. Constantine Londos, National Institute of Diabetes and Digestive and Kidney Diseases) overnight at 4° C. Blots were then washed in TBS plus 0.1% Tween 20 and then incubated for 1 h in secondary antibody, washed, and developed with a chemiluminescent substrate (ECL; Amersham, Arlington Heights, Ill.) following the manufacturer's protocol.
# WI38 cells [4] = assay: Reversal experiment, immunofluorescence double staining (ADRP or lipid droplets and αSMA) in WI38 cells; type: cell-based, human; conditions: RGZ 1×10^−5 M, DBcAMP 1×10^−5 M, 7 days after nicotine
# Protocol: Cells were grown in minimum essential medium (MEM) +10% fetal bovine serum at 37° C. in six-well plates, two well slides, and 60-mm and 100-mm culture dishes, as needed. […] Subsequently, the cells were treated with rosiglitazone (RGZ) (1×10^−5 M) (a PPARγ agonist), PTHrP (5×10^−7 M), or DBcAMP (1×10^−5 M) for 7 days, and the expression of PTHrP receptor, PPARγ, ADRP, calponin, and cSMA was determined by Western analysis and immunohistochemistry. Simultaneously, fibroblast function was characterized by measuring their capacity to take up triglycerides. Some experiments were performed in the presence of a specific PPARγ antagonist, GW9662. Medium containing fresh chemicals was added daily, and at the end of the experimental period the cells were processed as needed.
# The lipogenic and myogenic status of cultured WI38 cells was assessed by simultaneous staining for either lipid droplets or ADRP and αSMA. Lipids were detected by using either oil red 0 staining or ADRP expression (polyclonal anti-ADRP 1:500), and αSMA expression was assessed by using anti-αSMA (1:1000, mouse monoclonal IgG2a, Sigma, catalog No. A2547) primary antibody. […] At the end of the experimental period, slides were fixed in freshly prepared 4% paraformaldehyde. […] Slides were rinsed three times for 5 min and then mounted and visualized under a fluorescence microscope.
# WI38 cells [5] = assay: Triglyceride uptake assay ([3H]triolein) in WI38 cells; type: cell-based, human; conditions: concomitant treatment; RGZ 1×10^−5 M, PTHrP 5×10^−7 M, DBcAMP 1×10^−4 M; nicotine 1×10^−9 M, 7 days
# Protocol: as §1
# The method used to quantitate triglyceride uptake by fetal rat lung fibroblasts has been described previously (Torday et al. (1995) Biochim Biophys Acta 1254: 198-206). Briefly, culture medium was replaced with DMEM containing 20% adult rat serum mixed with [3H]triolein (5 μCi/ml). The cells were incubated at 37° C. in 5% CO2+balance air for 4 h. At the termination of the incubation, the medium was decanted, the cells were rinsed twice with 1 ml of ice-cold MEM, and the cells were removed from the culture plate after a 5- to 10-min incubation with 2 ml of a 0.05% trypsin solution. An aliquot of the cell suspension was taken for protein assay (Bradford (1976) Anal Biochem 72: 248-254), and the remaining cell suspension was extracted for neutral lipid content.
Molecule,reversal of nicotine-induced decrease in PTHrP receptor expression (WI38 cells [1]),reversal of nicotine-induced decrease in PPARγ expression (WI38 cells [1]),reversal of nicotine-induced increase in αSMA expression (WI38 cells [1]),"reversal of nicotine-induced changes in expression of PTHrP receptor, PPARγ, ADRP, αSMA and calponin (WI38 cells [1])",block of nicotine-induced decrease in triolein uptake (WI38 cells [2]),prevention of nicotine-induced decreases in PTHrP receptor and PPAR and increase in α-SMA protein expression (WI38 cells [3]),reversal of nicotine-induced decreases in ADRP and lipid droplet staining and increase in αSMA staining (WI38 cells [4]),prevention of nicotine-induced decrease in triglyceride uptake (WI38 cells [5])
"CCCC(=O)Nc1ncnc2c1ncn2[C@@H]1O[C@@H]2COP(=O)(O)O[C@H]2[C@H]1OC(=O)CCC [DBcAMP, dibutyryl cAMP]",reversed,did not reach statistical significance,reversed,almost completely reversed,at least partially blocked,completely prevented,reversed,effectively prevented
PTHrP-(1-34),reversed,reversed,reversed,almost completely reversed,at least partially blocked,completely prevented,–,effectively prevented
